Several values for one entry are separate records, joined by “and”; a condition that tells them apart may be missing. Equal entries are not always repeated.
These compounds were tested against T1, Human Aryl Hydrocarbon Receptor (AhR) (Homo sapiens, UniProt P35869) (assay: AHR antagonist reporter assay in human cell line (INDIGO AhR Reporter Assay System, kynurenic acid activated)). Settings: 200 μM kynurenic acid, 24 hours, luciferase; read-out: AhR Reporter Assay KA Antagonist Mode: IC50.
T1 construct: purchased INDIGO Bioscience #1B06001-32; host or cells: AhR Reporter Cell (kit's proprietary reporter cells)
T1 sequence (P35869 11-848): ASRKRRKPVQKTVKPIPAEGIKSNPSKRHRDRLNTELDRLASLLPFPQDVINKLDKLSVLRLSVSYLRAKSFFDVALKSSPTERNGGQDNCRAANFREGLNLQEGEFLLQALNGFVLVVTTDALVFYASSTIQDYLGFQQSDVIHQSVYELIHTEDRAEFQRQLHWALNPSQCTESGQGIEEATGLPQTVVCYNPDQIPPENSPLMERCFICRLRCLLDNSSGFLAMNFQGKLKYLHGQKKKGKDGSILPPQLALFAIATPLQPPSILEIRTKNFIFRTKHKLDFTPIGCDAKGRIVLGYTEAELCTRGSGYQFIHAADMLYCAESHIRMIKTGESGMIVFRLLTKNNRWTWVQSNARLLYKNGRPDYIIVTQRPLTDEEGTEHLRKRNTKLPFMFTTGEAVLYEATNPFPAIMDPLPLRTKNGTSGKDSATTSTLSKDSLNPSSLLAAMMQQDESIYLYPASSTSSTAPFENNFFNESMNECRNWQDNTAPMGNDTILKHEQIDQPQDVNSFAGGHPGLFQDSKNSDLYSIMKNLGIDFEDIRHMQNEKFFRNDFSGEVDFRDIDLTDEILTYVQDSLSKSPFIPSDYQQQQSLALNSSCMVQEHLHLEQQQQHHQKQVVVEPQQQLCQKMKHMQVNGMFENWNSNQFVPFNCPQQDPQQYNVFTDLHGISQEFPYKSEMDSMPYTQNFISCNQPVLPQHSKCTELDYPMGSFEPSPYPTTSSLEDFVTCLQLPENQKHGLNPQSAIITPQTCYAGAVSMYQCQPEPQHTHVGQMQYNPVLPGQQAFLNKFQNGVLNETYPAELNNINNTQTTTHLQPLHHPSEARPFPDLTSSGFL
Format: cell-based
Method: The AhR reporter assay was performed following the protocol of the Human Aryl Hydrocarbon Receptor (AhR) Reporter Assay System (INDIGO Bioscience, #1B06001-32). AhR Reporter Cell was thawed and pre-incubated in Cell Recovery Medium (CRM) for 6 hours. The media was then removed and the cells were incubated with Compound Screening Medium (CSM) supplemented with 200 μM kynurenic acid for 24 hours in the absence (negative control) or presence of increasing concentrations of test compounds (typical dilution: […], 3.2 nM, 16 nM, 80 nM, 400 nM, 2 μM, 10 μM in duplicates). For positive inhibition control, cells activated with 200 μM kynurenic acid were incubated in the presence of literature AHR antagonists; alternatively un-activated cells were used as positive inhibition control. Following 24 hours incubation, the media was removed and Luciferase Detection Reagent (LDR) added. The firefly luciferase activity was quantified using a plate reader. Results were normalized by positive and negative controls.

Compared with `CN(C)C(=O)CNC(=O)c1cc(-c2ccc(Cl)cc2)nn(-c2cccc(F)c2)c1=O` [Compound 2], `NC(=O)CNC(=O)c1cc(-c2ccc(Cl)cc2)nn(-c2cccc(F)c2)c1=O` [Compound 8] is higher in IC50: 100 to 400 nM for the first, greater than 400 nM for the second.

`CC(=O)N(C)CC(C)NC(=O)c1cc(-c2ccc(Cl)cc2)nn(-c2cccc(F)c2)c1=O` (stereo not drawn) [Compound 3] and `CC(CN(C)C)NC(=O)c1cc(-c2ccc(Cl)cc2)nn(-c2cccc(F)c2)c1=O` (stereo not drawn) [Compound 16] cannot be ordered by IC50: greater than 400 nM for the first, greater than 400 nM for the second.

`NC(=O)c1cc(-c2ccc(Cl)cc2)nn(-c2cccc(F)c2)c1=O` [Compound 4] and `CNC(=O)c1cc(-c2ccc(Cl)cc2)nn(-c2cccc(F)c2)c1=O` [Compound 21] cannot be ordered by IC50: greater than 400 nM for the first, greater than 400 nM for the second.

`O=C(NC1CNC1)c1cc(-c2ccc(Cl)cc2)nn(-c2cccc(F)c2)c1=O` [Compound 5] and `O=C(NC1COC1)c1cc(-c2ccc(Cl)cc2)nn(-c2cccc(F)c2)c1=O` [Compound 24] cannot be ordered by IC50: greater than 400 nM for the first, greater than 400 nM for the second.

`COCCNC(=O)c1cc(-c2ccc(Cl)cc2)nn(-c2cccc(F)c2)c1=O` [Compound 6] and `NCCNC(=O)c1cc(-c2ccc(Cl)cc2)nn(-c2cccc(F)c2)c1=O` [Compound 17] cannot be ordered by IC50: greater than 400 nM for the first, greater than 400 nM for the second.

Compared with `COCC(C)NC(=O)c1cc(-c2ccc(Cl)cc2)nn(-c2cccc(F)c2)c1=O` (stereo not drawn) [Compound 7], `CC(CN)NC(=O)c1cc(-c2ccc(Cl)cc2)nn(-c2cccc(F)c2)c1=O` (stereo not drawn) [Compound 14] is higher in IC50: less than 100 nM for the first, greater than 400 nM for the second. The first is the more potent here.

`CNC(=O)CNC(=O)c1cc(-c2ccc(Cl)cc2)nn(-c2cccc(F)c2)c1=O` [Compound 9] and `CNCCNC(=O)c1cc(-c2ccc(Cl)cc2)nn(-c2cccc(F)c2)c1=O` [Compound 18] cannot be ordered by IC50: greater than 400 nM for the first, greater than 400 nM for the second.

`CC(NC(=O)c1cc(-c2ccc(Cl)cc2)nn(-c2cccc(F)c2)c1=O)C(=O)O` (stereo not drawn) [Compound 10] and `CC(NC(=O)c1cc(-c2ccc(Cl)cc2)nn(-c2cccc(F)c2)c1=O)C(N)=O` (stereo not drawn) [Compound 11] cannot be ordered by IC50: greater than 400 nM for the first, greater than 400 nM for the second.

`CNCC(C)NC(=O)c1cc(-c2ccc(Cl)cc2)nn(-c2cccc(F)c2)c1=O` (stereo not drawn) [Compound 15] and `CN(C)CCNC(=O)c1cc(-c2ccc(Cl)cc2)nn(-c2cccc(F)c2)c1=O` [Compound 19] cannot be ordered by IC50: greater than 400 nM for the first, greater than 400 nM for the second.

`CC(=O)N(C)CCNC(=O)c1cc(-c2ccc(Cl)cc2)nn(-c2cccc(F)c2)c1=O` [Compound 20] and `CN(CCO)C(=O)c1cc(-c2ccc(Cl)cc2)nn(-c2cccc(F)c2)c1=O` [Compound 22] cannot be ordered by IC50: greater than 400 nM for the first, greater than 400 nM for the second.

`CN(CCN)C(=O)c1cc(-c2ccc(Cl)cc2)nn(-c2cccc(F)c2)c1=O` [Compound 23] and `CC(=O)N1CC(NC(=O)c2cc(-c3ccc(Cl)cc3)nn(-c3cccc(F)c3)c2=O)C1` [Compound 30] cannot be ordered by IC50: greater than 400 nM for the first, greater than 400 nM for the second.

First: O=C(NC1CCCCNC1=O)c1cc(-c2ccc(Cl)cc2)nn(-c2cccc(F)c2)c1=O (stereo not drawn) [Compound 28]
Second: Cn1cc(-n2nc(-c3ccc(Cl)cc3)cc(C(=O)NCC(=O)O)c2=O)cn1 [Compound 33]
The IC50 of the first is lower: less than 100 nM for the first, greater than 400 nM for the second.

`Cn1cc(-n2nc(-c3ccc(Cl)cc3)cc(C(=O)NCC(N)=O)c2=O)cn1` [Compound 34] and `CNC(=O)CNC(=O)c1cc(-c2ccc(Cl)cc2)nn(-c2cnn(C)c2)c1=O` [Compound 35] cannot be ordered by IC50: greater than 400 nM for the first, greater than 400 nM for the second.

`CN(C)C(=O)CNC(=O)c1cc(-c2ccc(Cl)cc2)nn(-c2cnn(C)c2)c1=O` [Compound 36] and `CN(C)CCNC(=O)c1cc(-c2ccc(Cl)cc2)nn(-c2cnn(C)c2)c1=O` [Compound 47] cannot be ordered by IC50: greater than 400 nM for the first, greater than 400 nM for the second.

`CC(NC(=O)c1cc(-c2ccc(Cl)cc2)nn(-c2cnn(C)c2)c1=O)C(=O)O` (stereo not drawn) [Compound 37] and `CNCCNC(=O)c1cc(-c2ccc(Cl)cc2)nn(-c2cnn(C)c2)c1=O` [Compound 46] cannot be ordered by IC50: greater than 400 nM for the first, greater than 400 nM for the second.

First: COC[C@H](C)NC(=O)c1cc(-c2ccc(S(C)(=O)=O)cc2)nn(-c2cnn(C)c2)c1=O [Compound 66]
Second: COC[C@H](C)NC(=O)c1cc(-c2ccc(C)cc2)nn(-c2cnn(C)c2)c1=O [Compound 68]
The IC50 of the first is higher: greater than 400 nM for the first, 100 to 400 nM for the second.

With `COC[C@H](C)NC(=O)c1cc(-c2ccc(C)cn2)nn(-c2cnn(C)c2)c1=O` [Compound 67] the IC50 was > 400 nM and < 100 nM.
